SMILES strings stand for the structures.

The test system of one test is Her2 in SKBr3 cells. Put plainly: Her2 assay (microtiter immunoassay of Her2 degradation). Type of test: cell-based, human. The note with it: result in words. The procedure:
Her2 Assay. SKBr3 cells were plated in black, clear-bottom microtiter plates (Corning#3603) at 3,000 cells/well in growth medium (100 μl) and allowed to attach for 24 h at 37° C. and 5% CO2. Growth medium (100 μl) with drug or vehicle (DMSO) was carefully added to the wells, and the plates were placed at 37° C. and 5% CO2. Following 24 h incubation with drugs, wells were washed with ice-cold Tris buffer saline (TBS) containing 0.1% Tween 20 (TBST) (200 μl). A house vacuum source attached to an eight-channel aspirator was used to remove the liquid from the plates. Further, methanol (100 μl at −20° C.) was added to each well, and the plate was placed at 4° C. for 10 min. Methanol was removed by washing with TBST (2×200 μl). After further incubation at RT for 2 h with SUPERBLOCK® R (Pierce 37535) (200 μl), anti-Her-2 (c-erbB-2) antibody (Zymed Laboratories#28-004) (100 μl, 1:200 in SUPERBLOCK® R) was placed in each well. The plate was incubated overnight at 4° C. For control wells, 1:200 dilution of a normal rabbit IgG (Santa Cruz#SC-2027) in SUPERBLOCK® R was used. Each well was washed with TBST (2×200 μl) and incubated at RT for 2 h with an anti-rabbit HRP-linked antibody (Sigma, A-0545) (100 μl, 1:2000 in SuperBlockR). Unreacted antibody was removed by washing with TBST (3×200 μl), and the ECL™ Western blotting reagent (Amersham #RPN2106) (100 μL) was added. The plate was immediately read in an Analyst AD plate reader (Molecular Devices). Each well was scanned for 0.1 s. Readings from wells containing only control IgG and the corresponding HRP-linked secondary antibody were set as background and deducted from all measured values.

Test [1] concerns renal proximal tubular epithelial cells (RPTEC). The test is described as follows: Cytotoxicity against normal RPTEC cells. Format: cell-based, human. The following applies: ratio of growth IC50 values. On the procedure: Cell Culture. The human breast cancer cell lines SKBr3 and MDA-MB-468 were a gift from Dr. Neal Rosen (MSKCC). Cells were maintained in 1:1 mixture of DME:F12 supplemented with 2 mM glutamine, 50 units/mL penicillin, 50 […] and 10% heat inactivated fetal bovine serum (Gemini Bioproducts#100-10b) and incubated at 37° C., 5% CO2. Growth assays. Growth inhibition studies were performed using the sulforhodamine B assay as previously described.^29 In summary, experimental cultures were plated in microtiter plates (Nunc#167008). One column of wells was left without cells to serve as the blank control. Cells were allowed to attach overnight. The following day, growth medium having either drug or DMSO at twice the desired initial concentration was added to the plate in triplicate and was serially diluted at a 1:1 ratio in the microtiter plate. After 72 h of growth, the cell number in treated versus control wells was estimated after treatment with 50% trichloroacetic acid and staining with 0.4% sulforhodamine B in 1% acetic acid. […] Normal human renal proximal tubular epithelial (RPTEC) cells were purchased pre-seeded in 96-well plates (Clonetics, CC-3190). Upon receipt, cells were placed in a humidified incubator at 37° C., 5% CO2 and allowed to equilibrate for 3 h. Media was removed by suction and replaced with fresh media provided by the manufacturer. […]

The next test concerns MDA-MB-468 cells. Put plainly: Anti-mitotic assay (Tg-3 microtiter immunoassay). Type of test: cell-based, human. The following applies: MDA-MB-468 (Rb-defective) cells, 24 h. On the procedure: Anti-Mitotic Assay. Black, clear-bottom microtiter 96-well plates (Corning Costar#3603) were used to accommodate experimental cultures. MDA-MB-468 cells were seeded in each well at 8,000 cells per well in growth medium (100 μL), and allowed to attach overnight at 37° C. and 5% CO2. Growth medium (100 μL) with drug or vehicle (DMSO) was gently added to the wells, and the plates were incubated at 37° C. and 5% CO2 for 24 h. Wells were washed with ice-cold TBST (2×200 μL). A house vacuum source attached to an eight-channel aspirator was used to remove the liquid from the 96-well plates. Ice-cold methanol (100 μL) was added to each well, and the plate was placed at 4° C. for 5 min. Methanol was removed by suction and plates were washed with ice-cold TBST (2×200 μL). Plates were further incubated with SuperBlock® blocking buffer (Pierce #37535) (200 μL) for 2 h at RT. The Tg-3 antibody (gift of Dr. Davies, Albert Einstein College of Medicine) diluted 1:200 in SuperBlock® was placed in each well (100 μL) except the control column that was treated with control antibody (Mouse IgM, NeoMarkers, NC-1030-P). After 72 h, wells were washed with ice-cold TBST (2×200 μL). […] Un-reacted antibody was removed by washing the plates with ice-cold TBST (3×200 μL) for 5 min on a shaker. The ECL™ Western Blotting Detection Reagents 1 and 2 in 1:1 mix (100 μL) was placed in each well and the plates were read immediately in an Analyst AD plate reader (Molecular Devices). Luminescence readings were imported into SOFTmax PROR 4.3.1. Anti-mitotic activity was defined as a concentration dependent increase in luminescence readings in compound-treated wells as compared to DMSO only treated wells.

Test [2] deals with Hsp90 complexes found in normal brain tissue. The test is described as follows: Hsp90 competition assay, brain homogenate. Type of test: binding, mouse. The note with it: ratio of EC50 values.
Method: (§1) When using cell lysates instead of recombinant protein, the assay measures binding to average. Hsp90 population found in cell specific complexes.
(§2) Hsp90 Competition Assay.Fluorescence polarization measurements were performed on an ANALYST® AD instrument (Molecular Devices, Sunnyvale, Calif.). […] The assay buffer (HFB) contained 20 mM HEPES (K) pH 7.3, 50 mM KCl, 5 mM MgCl2, 20 mM Na2MoO4, 0.01% NP40. Before each use, 0.1 mg/mL bovine gamma globulin (BGG) (Panvera Corporation, Madison, Wis.) and 2 mM DTT (Fisher Biotech, Fair Lawn, N.J.) were freshly added. […] Cell lysates were prepared rupturing cellular membranes by freezing at −70° C. and dissolving the cellular extract in HFB with added protease and phosphotase inhibitors. Organs were harvested from a healthy mouse and homogenized in HFB. Saturation curves were recorded in which GM-BODIPY (5 nM) was treated with increasing amounts of cellular lysates.
Test [3] deals with small cell lung cancer cell lines. Put plainly: Apoptosis and cell death in SCLC cell lines. Type of test: cell-based. The note with it: each of the SCLC cell lines.
Test [4] relates to SKBr3 breast cancer cells. Put plainly: Growth inhibition, sulforhodamine B assay. The following applies: result in words. Type of test: cell-based, human. The procedure:
Cell Culture. The human breast cancer cell lines SKBr3 and MDA-MB-468 were a gift from Dr. Neal Rosen (MSKCC). Cells were maintained in 1:1 mixture of DME:F12 supplemented with 2 mM glutamine, 50 units/mL penicillin, 50 […] and 10% heat inactivated fetal bovine serum (Gemini Bioproducts#100-10b) and incubated at 37° C., 5% CO2. Growth assays. Growth inhibition studies were performed using the sulforhodamine B assay as previously described.^29 In summary, experimental cultures were plated in microtiter plates (Nunc#167008). One column of wells was left without cells to serve as the blank control. Cells were allowed to attach overnight. The following day, growth medium having either drug or DMSO at twice the desired initial concentration was added to the plate in triplicate and was serially diluted at a 1:1 ratio in the microtiter plate. After 72 h of growth, the cell number in treated versus control wells was estimated after treatment with 50% trichloroacetic acid and staining with 0.4% sulforhodamine B in 1% acetic acid. […] Normal human renal proximal tubular epithelial (RPTEC) cells were purchased pre-seeded in 96-well plates (Clonetics, CC-3190). Upon receipt, cells were placed in a humidified incubator at 37° C., 5% CO2 and allowed to equilibrate for 3 h. Media was removed by suction and replaced with fresh media provided by the manufacturer. Cells were then treated with either drugs or DMSO for 72 h and the IC50 values were determined as described above.
(The SRB assay estimates cell density from bound dye.)

The test system of another test is Hsp90 from SKBr3 cells. Put plainly: Hsp90 competition assay, SKBr3 cell lysate. Type of test: binding, human.

Method for Hsp90 from SKBr3 cells: as §1, §2

Regarding `C#CCCCn1c(Sc2cc3c(cc2Br)OCO3)nc2c(N)ncnc21` [Example 1, 9-(Pent-4-ynyl)-8-(6-bromo-benzo[1,3]dioxol-5-ylsulfanyl)adenine], the “Her2 degradation in SKBr3 cells” value in the test with Her2 in SKBr3 cells is recorded as “induced Her2 degradation”. The RPTEC/SKBr3 in test [1] is recorded as 20.5. Moreover, in the test with MDA-MB-468 cells, the Anti-mitotic entry was “exhibited anti-mitotic activity and Yes”. Also, in test [2], the Brain/SKBr3 was 2000. In addition, the “Induction of apoptosis in SCLC cell lines” value in test [3] is recorded as “induced apoptosis”. Moreover, the “Inhibition of growth in SKBr3 cells” value in test [4] is reported as “inhibition of growth”. For the same compound, the “Selectivity for tumor cells as opposed to normal heart, brain or lung tissue” value with Hsp90 from SKBr3 cells is “very high selectivity”.

For the origin of these results see US10676476B2, “Small-molecule HSP90 inhibitors” (Sloan-Kettering Institute for Cancer Research, priority 2005, dated 2020).
